According to PubChem BioAssay (NCI):
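Dose response: 5 concentrations. Exposure: 48 h. Format: 96-well plates. Endpoint: linear interpolation; highest concentration if not reached. The concentration for full growth arrest is given as TGI.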

Legend:
Assay in all cases: NCI tumour cell line growth inhibition, 48 h
786-0 renal = test system: 786-0 renal
A498 renal = test system: A498 renal
A549 NSCLC = test system: A549 NSCLC
ACHN renal = test system: ACHN renal
BT-549 breast = test system: BT-549 breast
CAKI-1 renal = test system: CAKI-1 renal
CCRF-CEM leukemia = test system: CCRF-CEM leukemia
COLO 205 colon = test system: COLO 205 colon
DU-145 prostate = test system: DU-145 prostate
EKVX NSCLC = test system: EKVX NSCLC
HCC-2998 colon = test system: HCC-2998 colon
HCT-116 colon = test system: HCT-116 colon
HCT-15 colon = test system: HCT-15 colon
HL-60(TB) leukemia = test system: HL-60(TB) leukemia
HOP-62 NSCLC = test system: HOP-62 NSCLC
HOP-92 NSCLC = test system: HOP-92 NSCLC
HS 578T breast = test system: HS 578T breast
HT29 colon = test system: HT29 colon
IGROV1 ovarian = test system: IGROV1 ovarian
K-562 leukemia = test system: K-562 leukemia
KM12 colon = test system: KM12 colon
LOX IMVI melanoma = test system: LOX IMVI melanoma
M14 melanoma = test system: M14 melanoma
MALME-3M melanoma = test system: MALME-3M melanoma
MCF7 breast = test system: MCF7 breast
MDA-MB-231 breast = test system: MDA-MB-231 breast
MDA-MB-435 = test system: MDA-MB-435
MDA-N = test system: MDA-N
MOLT-4 leukemia = test system: MOLT-4 leukemia
NCI-H226 lung = test system: NCI-H226 lung
NCI-H23 lung = test system: NCI-H23 lung
NCI-H460 lung = test system: NCI-H460 lung
NCI-H522 lung = test system: NCI-H522 lung
NCI/ADR-RES ovarian = test system: NCI/ADR-RES ovarian
OVCAR-3 ovarian = test system: OVCAR-3 ovarian
OVCAR-4 ovarian = test system: OVCAR-4 ovarian
OVCAR-5 ovarian = test system: OVCAR-5 ovarian
OVCAR-8 ovarian = test system: OVCAR-8 ovarian
PC-3 prostate = test system: PC-3 prostate
RPMI-8226 leukemia = test system: RPMI-8226 leukemia
RXF 393 renal = test system: RXF 393 renal
SF-268 CNS = test system: SF-268 CNS
SF-295 CNS = test system: SF-295 CNS
SF-539 CNS = test system: SF-539 CNS
SK-MEL-2 melanoma = test system: SK-MEL-2 melanoma
SK-MEL-28 melanoma = test system: SK-MEL-28 melanoma
SK-MEL-5 melanoma = test system: SK-MEL-5 melanoma
SK-OV-3 ovarian = test system: SK-OV-3 ovarian
SN12C renal = test system: SN12C renal
SNB-19 CNS = test system: SNB-19 CNS
SNB-75 CNS = test system: SNB-75 CNS
SR leukemia = test system: SR leukemia
SW-620 colon = test system: SW-620 colon
T-47D breast = test system: T-47D breast
TK-10 renal = test system: TK-10 renal
U251 CNS = test system: U251 CNS
UACC-257 melanoma = test system: UACC-257 melanoma
UACC-62 melanoma = test system: UACC-62 melanoma
UO-31 renal = test system: UO-31 renal

Cc1cc2[nH]c(Cl)c(/C=C3\C(=O)Nc4ccccc43)c2cc1O
TGI (786-0 renal): > 37.8 µM | TGI (A498 renal): 16.1 µM | TGI (A549 NSCLC): 21.6 µM | TGI (ACHN renal): 21.6 µM | TGI (BT-549 breast): 25 µM | TGI (CAKI-1 renal): 19.7 µM | TGI (CCRF-CEM leukemia): 9.32 µM | TGI (COLO 205 colon): 30.1 µM | TGI (DU-145 prostate): 12.9 µM | TGI (EKVX NSCLC): 18 µM | TGI (HCC-2998 colon): 16 µM | TGI (HCT-116 colon): > 36.7 µM | TGI (HCT-15 colon): 23.3 µM | TGI (HL-60(TB) leukemia): 6.16 µM | TGI (HOP-62 NSCLC): 25.9 µM | TGI (HOP-92 NSCLC): 22.8 µM | TGI (HS 578T breast): > 100 µM | TGI (HT29 colon): 19.5 µM | TGI (IGROV1 ovarian): 10.9 µM | TGI (K-562 leukemia): 18.8 µM | TGI (KM12 colon): 17.1 µM | TGI (LOX IMVI melanoma): 40 µM | TGI (M14 melanoma): 17 µM | TGI (MALME-3M melanoma): 16.3 µM | TGI (MCF7 breast): 16.5 µM | TGI (MDA-MB-231 breast): 15.9 µM | TGI (MDA-MB-435): 1.18 µM | TGI (MDA-N): 1.97 µM | TGI (MOLT-4 leukemia): 32.9 µM | TGI (NCI-H226 lung): 4.31 µM | TGI (NCI-H23 lung): 10.5 µM | TGI (NCI-H460 lung): 15 µM | TGI (NCI-H522 lung): 4.66 µM | TGI (NCI/ADR-RES ovarian): > 48.9 µM | TGI (OVCAR-3 ovarian): 26.7 µM | TGI (OVCAR-4 ovarian): 25.9 µM | TGI (OVCAR-5 ovarian): 20.1 µM | TGI (OVCAR-8 ovarian): 25.8 µM | TGI (PC-3 prostate): 12.8 µM | TGI (RPMI-8226 leukemia): 9.95 µM | TGI (RXF 393 renal): 9.66 µM | TGI (SF-268 CNS): 18.2 µM | TGI (SF-295 CNS): 11.3 µM | TGI (SF-539 CNS): 4.6 µM | TGI (SK-MEL-2 melanoma): 12.9 µM | TGI (SK-MEL-28 melanoma): 24.2 µM | TGI (SK-MEL-5 melanoma): 12.3 µM | TGI (SK-OV-3 ovarian): 19 µM | TGI (SN12C renal): 12.2 µM | TGI (SNB-19 CNS): 17.2 µM | TGI (SNB-75 CNS): 16.5 µM | TGI (SR leukemia): 4.17 µM | TGI (SW-620 colon): 30.7 µM | TGI (T-47D breast): > 56.9 µM | TGI (TK-10 renal): 23.5 µM | TGI (U251 CNS): 14.4 µM | TGI (UACC-257 melanoma): 23.6 µM | TGI (UACC-62 melanoma): 9.08 µM | TGI (UO-31 renal): 17.8 µM

COP(=O)(OC)/C(=C/c1c[nH]c2ccccc12)C(=O)O
TGI (786-0 renal): > 100 µM | TGI (A498 renal): > 100 µM | TGI (A549 NSCLC): > 100 µM | TGI (ACHN renal): > 100 µM | TGI (BT-549 breast): > 100 µM | TGI (CAKI-1 renal): > 100 µM | TGI (CCRF-CEM leukemia): > 100 µM | TGI (COLO 205 colon): > 100 µM | TGI (DU-145 prostate): > 100 µM | TGI (EKVX NSCLC): > 100 µM | TGI (HCC-2998 colon): > 100 µM | TGI (HCT-116 colon): > 100 µM | TGI (HCT-15 colon): > 100 µM | TGI (HL-60(TB) leukemia): > 100 µM | TGI (HOP-62 NSCLC): > 100 µM | TGI (HOP-92 NSCLC): > 100 µM | TGI (HS 578T breast): > 100 µM | TGI (HT29 colon): > 100 µM | TGI (IGROV1 ovarian): > 100 µM | TGI (K-562 leukemia): > 100 µM | TGI (KM12 colon): > 100 µM | TGI (LOX IMVI melanoma): > 100 µM | TGI (M14 melanoma): > 100 µM | TGI (MALME-3M melanoma): > 100 µM | TGI (MCF7 breast): > 100 µM | TGI (MDA-MB-231 breast): > 100 µM | TGI (MDA-MB-435): > 100 µM | TGI (MDA-N): > 100 µM | TGI (MOLT-4 leukemia): > 100 µM | TGI (NCI-H226 lung): > 100 µM | TGI (NCI-H23 lung): > 100 µM | TGI (NCI-H460 lung): > 100 µM | TGI (NCI-H522 lung): > 100 µM | TGI (NCI/ADR-RES ovarian): > 100 µM | TGI (OVCAR-3 ovarian): > 100 µM | TGI (OVCAR-4 ovarian): > 100 µM | TGI (OVCAR-5 ovarian): > 100 µM | TGI (OVCAR-8 ovarian): > 100 µM | TGI (PC-3 prostate): > 100 µM | TGI (RPMI-8226 leukemia): > 100 µM | TGI (RXF 393 renal): > 100 µM | TGI (SF-295 CNS): > 100 µM | TGI (SF-539 CNS): > 100 µM | TGI (SK-MEL-2 melanoma): > 100 µM | TGI (SK-MEL-28 melanoma): > 100 µM | TGI (SK-MEL-5 melanoma): > 100 µM | TGI (SK-OV-3 ovarian): > 100 µM | TGI (SN12C renal): > 100 µM | TGI (SNB-19 CNS): > 100 µM | TGI (SNB-75 CNS): > 100 µM | TGI (SR leukemia): > 100 µM | TGI (SW-620 colon): > 100 µM | TGI (T-47D breast): > 100 µM | TGI (TK-10 renal): > 100 µM | TGI (U251 CNS): > 100 µM | TGI (UACC-62 melanoma): > 100 µM | TGI (UO-31 renal): > 100 µM

Cc1ccc([N+](=O)[O-])cc1S(=O)(=O)Nc1ccc(C(=O)/C=C/c2cccs2)cc1
TGI (786-0 renal): 37.4 µM | TGI (A498 renal): 45.1 µM | TGI (A549 NSCLC): > 100 µM | TGI (ACHN renal): 87.6 µM | TGI (BT-549 breast): 40.1 µM | TGI (CAKI-1 renal): 38.8 µM | TGI (CCRF-CEM leukemia): > 100 µM | TGI (COLO 205 colon): 95.9 µM | TGI (DU-145 prostate): 54.2 µM | TGI (EKVX NSCLC): 51.7 µM | TGI (HCC-2998 colon): 34.6 µM | TGI (HCT-116 colon): 35.8 µM | TGI (HCT-15 colon): 64.3 µM | TGI (HL-60(TB) leukemia): 62.9 µM | TGI (HOP-62 NSCLC): 48 µM | TGI (HOP-92 NSCLC): > 100 µM | TGI (HS 578T breast): > 100 µM | TGI (HT29 colon): 41.6 µM | TGI (IGROV1 ovarian): > 100 µM | TGI (K-562 leukemia): > 100 µM | TGI (KM12 colon): 32.5 µM | TGI (LOX IMVI melanoma): 45.2 µM | TGI (M14 melanoma): 45.3 µM | TGI (MALME-3M melanoma): > 100 µM | TGI (MCF7 breast): 39.2 µM | TGI (MDA-MB-231 breast): 31.1 µM | TGI (MDA-MB-435): 32.7 µM | TGI (MDA-N): 73 µM | TGI (MOLT-4 leukemia): 64.1 µM | TGI (NCI-H226 lung): 71.5 µM | TGI (NCI-H23 lung): 46.1 µM | TGI (NCI-H460 lung): > 100 µM | TGI (NCI-H522 lung): 50.8 µM | TGI (NCI/ADR-RES ovarian): 59.3 µM | TGI (OVCAR-3 ovarian): 39.2 µM | TGI (OVCAR-4 ovarian): 54.3 µM | TGI (OVCAR-5 ovarian): > 100 µM | TGI (OVCAR-8 ovarian): > 100 µM | TGI (PC-3 prostate): 43.8 µM | TGI (RPMI-8226 leukemia): > 100 µM | TGI (RXF 393 renal): 32.9 µM | TGI (SF-268 CNS): > 100 µM | TGI (SF-295 CNS): > 100 µM | TGI (SF-539 CNS): > 100 µM | TGI (SK-MEL-2 melanoma): 41.8 µM | TGI (SK-MEL-28 melanoma): 58.7 µM | TGI (SK-MEL-5 melanoma): 33.1 µM | TGI (SK-OV-3 ovarian): > 100 µM | TGI (SN12C renal): 74.8 µM | TGI (SNB-19 CNS): 55.9 µM | TGI (SNB-75 CNS): 36.9 µM | TGI (SR leukemia): 68.9 µM | TGI (SW-620 colon): 50.1 µM | TGI (T-47D breast): 91.7 µM | TGI (TK-10 renal): > 100 µM | TGI (UACC-257 melanoma): 46.6 µM | TGI (UACC-62 melanoma): 32.1 µM | TGI (UO-31 renal): 40.4 µM
